target: T1, JAK2 (JH1domain-catalytic, Y1007F,Y1008F) kinase (Homo sapiens, UniProt O60674, Y1007F/Y1008F); experiment: JAK2 JH1 Domain Binding Assay; conditions: qPCR readout
T1 construct: JAK2 (JH1domain-catalytic, Y1007F,Y1008F) kinase was expressed as N-terminal fusion; made in house; host or cells: transiently transfected HEK293 cells
T1 sequence (O60674 849-1124 Y1007F/Y1008F limits assumed): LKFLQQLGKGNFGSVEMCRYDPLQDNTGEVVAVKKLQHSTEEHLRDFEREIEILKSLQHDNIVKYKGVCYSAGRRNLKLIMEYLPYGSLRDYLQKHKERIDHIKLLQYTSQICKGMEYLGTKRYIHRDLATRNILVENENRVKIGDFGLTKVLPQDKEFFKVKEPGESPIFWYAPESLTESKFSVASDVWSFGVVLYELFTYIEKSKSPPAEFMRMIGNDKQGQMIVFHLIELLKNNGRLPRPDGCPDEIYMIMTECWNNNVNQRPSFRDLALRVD

Row | Kd | Structure (SMILES)
1 | 10 to 50 nM | COc1c(Oc2cnn3ccncc23)cnc2nc(Nc3cc(C(C)(C)C)n([C@H]4CCN(CCF)C4)n3)n(C)c12 [Example I-50, (S)—N-(5-(tert-butyl)-1-(1-(2-fluoroethyl)pyrrolidin-3-yl)-1H-pyrazol-3-yl)-7-methoxy-1-methyl-6-(pyrazolo[1,5-a]pyrazin-3-yloxy)-1H-imidazo[4,5-b]pyridin-2-amine]
2 | 10 to 50 nM | COCCN1CC[C@H](n2nc(Nc3nc4ncc(Oc5cnn6ccncc56)c(C(F)F)c4n3C)cc2C(C)(C)C)C1 [Example I-51, (S)—N-(5-(tert-butyl)-1-(1-(2-methoxyethyl)pyrrolidin-3-yl)-1H-pyrazol-3-yl)-7-(difluoromethyl)-1-methyl-6-(pyrazolo[1,5-a]pyrazin-3-yloxy)-1H-imidazo[4,5-b]pyridin-2-amine]
3 | < 10 nM | Cn1c(Nc2cc(C(C)(C)C)n(C3CC4(COC4)C3)n2)nc2ncc(Oc3cnn4ccncc34)c(C(F)F)c21 [Example I-53, N-(5-(tert-butyl)-1-(2-oxaspiro[3.3]heptan-6-yl)-1H-pyrazol-3-yl)-7-(difluoromethyl)-1-methyl-6-(pyrazolo[1,5-a]pyrazin-3-yloxy)-1H-imidazo[4,5-b]pyridin-2-amine]
4 | 10 to 50 nM | Cn1c(Nc2cc(C(C)(C)C)n(CC#N)n2)nc2ncc(Oc3cnn4ccncc34)c(Cl)c21 [Example I-54, 2-(5-(tert-butyl)-3-((7-chloro-1-methyl-6-(pyrazolo[1,5-a]pyrazin-3-yloxy)-1H-imidazo[4,5-b]pyridin-2-yl)amino)-1H-pyrazol-1-yl)acetonitrile]
5 | < 10 nM | Cn1c(Nc2cc(C(C)(C)C)n([C@H]3C[C@H](O)C3)n2)nc2ncc(Oc3cnn4ccncc34)c(Cl)c21 [Example I-55, trans-3-(5-(tert-butyl)-3-((7-chloro-1-methyl-6-(pyrazolo[1,5-a]pyrazin-3-yloxy)-1H-imidazo[4,5-b]pyridin-2-yl)amino)-1H-pyrazol-1-yl)cyclobutan-1-ol]
6 | < 10 nM | Cn1cc(C2CC2)cc(Nc2nc3ncc(Oc4cnn5ccncc45)c(Cl)c3n2C)c1=O [Example I-57, 3-((7-chloro-1-methyl-6-(pyrazolo[1,5-a]pyrazin-3-yloxy)-1H-imidazo[4,5-b]pyridin-2-yl)amino)-5-cyclopropyl-1-methylpyridin-2(1H)-one]
7 | < 10 nM | COCCn1cc(C2CC2)cc(Nc2nc3ncc(Oc4cnn5ccncc45)c(OC)c3n2C)c1=O [Example I-58, 5-cyclopropyl-3-((7-methoxy-1-methyl-6-(pyrazolo[1,5-a]pyrazin-3-yloxy)-1H-imidazo[4,5-b]pyridin-2-yl)amino)-1-(2-methoxyethyl)pyridin-2(1H)-one]
8 | < 10 nM | Cn1cc(C2CC2)cc(Nc2nc3ncc(Oc4cnn5ccncc45)c(C(F)F)c3n2C)c1=O [Example I-59, 5-cyclopropyl-3-((7-(difluoromethyl)-1-methyl-6-(pyrazolo[1,5-a]pyrazin-3-yloxy)-1H-imidazo[4,5-b]pyridin-2-yl)amino)-1-methylpyridin-2(1H)-one]
9 | < 10 nM | Cn1c(Nc2cc(C(C)(C)C)n(CCC#N)n2)nc2ncc(Oc3cnn4ccncc34)c(Cl)c21 [Example I-61, 3-(5-(tert-butyl)-3-((7-chloro-1-methyl-6-(pyrazolo[1,5-a]pyrazin-3-yloxy)-1H-imidazo[4,5-b]pyridin-2-yl)amino)-1H-pyrazol-1-yl)propanenitrile]
10 | 10 to 50 nM | COc1c(Oc2cnn3ccncc23)cnc2nc(Nc3cc(C(C)(C)C)n([C@@H]4CCN(CCF)C4)n3)n(C)c12 [Example I-62, (R)—N-(5-(tert-butyl)-1-(1-(2-fluoroethyl)pyrrolidin-3-yl)-1H-pyrazol-3-yl)-7-methoxy-1-methyl-6-(pyrazolo[1,5-a]pyrazin-3-yloxy)-1H-imidazo[4,5-b]pyridin-2-amine]
11 | 10 to 50 nM | Cn1c(Nc2cc(C(C)(C)C)n(CC#N)n2)nc2ncc(Oc3cnn4ccncc34)c(C(F)F)c21 [Example I-63, 2-(5-(tert-butyl)-3-((7-(difluoromethyl)-1-methyl-6-(pyrazolo[1,5-a]pyrazin-3-yloxy)-1H-imidazo[4,5-b]pyridin-2-yl)amino)-1H-pyrazol-1-yl)acetonitrile]
12 | < 10 nM | COc1c(Oc2cnn3ccncc23)cnc2nc(Nc3cc(C4CC4)cn(C)c3=O)n(C)c12 [Example I-64, 5-cyclopropyl-3-((7-methoxy-1-methyl-6-(pyrazolo[1,5-a]pyrazin-3-yloxy)-1H-imidazo[4,5-b]pyridin-2-yl)amino)-1-methylpyridin-2(1H)-one]

More lines, now with the values behind:

Row | Structure (SMILES) | Kd
13 | CN1CC[C@H](n2nc(Nc3nc4ncc(Oc5cnn6ccncc56)c(Cl)c4n3C)cc2C(C)(C)C)C1 [Example I-31, (S)—N-(5-(tert-butyl)-1-(1-methylpyrrolidin-3-yl)-1H-pyrazol-3-yl)-7-chloro-1-methyl-6-(pyrazolo[1,5-a]pyrazin-3-yloxy)-1H-imidazo[4,5-b]pyridin-2-amine] | < 10 nM
14 | CN1CC[C@@H](n2nc(Nc3nc4ncc(Oc5cnn6ccncc56)c(Cl)c4n3C)cc2C(C)(C)C)C1 [Example I-32, (R)—N-(5-(tert-butyl)-1-(1-methylpyrrolidin-3-yl)-1H-pyrazol-3-yl)-7-chloro-1-methyl-6-(pyrazolo[1,5-a]pyrazin-3-yloxy)-1H-imidazo[4,5-b]pyridin-2-amine] | < 10 nM
15 | Cn1c(Nc2cc(C(C)(C)C)n(C3CC4(COC4)C3)n2)nc2ncc(Oc3cnn4ccnc4c3)c(Cl)c21 [Example I-33, N-(5-(tert-butyl)-1-(2-oxaspiro[3.3]heptan-6-yl)-1H-pyrazol-3-yl)-7-chloro-6-(imidazo[1,2-b]pyridazin-7-yloxy)-1-methyl-1H-imidazo[4,5-b]pyridin-2-amine] | 10 to 50 nM
16 | Cn1c(Nc2cc(C(C)(C)C)n(CC(F)F)n2)nc2ncc(Oc3cnn4ccncc34)c(Cl)c21 [Example I-34, N-(5-(tert-butyl)-1-(2,2-difluoroethyl)-1H-pyrazol-3-yl)-7-chloro-1-methyl-6-(pyrazolo[1,5-a]pyrazin-3-yloxy)-1H-imidazo[4,5-b]pyridin-2-amine] | < 10 nM
17 | CN1CC[C@H](n2nc(Nc3nc4ncc(Oc5cnn6ccnc6c5)c(Cl)c4n3C)cc2C(C)(C)C)C1 [Example I-35, (S)—N-(5-(tert-butyl)-1-(1-methylpyrrolidin-3-yl)-1H-pyrazol-3-yl)-7-chloro-6-(imidazo[1,2-b]pyridazin-7-yloxy)-1-methyl-1H-imidazo[4,5-b]pyridin-2-amine] | 10 to 50 nM
18 | CN1CC[C@@H](n2nc(Nc3nc4ncc(Oc5cnn6ccnc6c5)c(Cl)c4n3C)cc2C(C)(C)C)C1 [Example I-36, (R)—N-(5-(tert-butyl)-1-(1-methylpyrrolidin-3-yl)-1H-pyrazol-3-yl)-7-chloro-6-(imidazo[1,2-b]pyridazin-7-yloxy)-1-methyl-1H-imidazo[4,5-b]pyridin-2-amine] | 50 to 1000 nM
19 | CN1CC[C@H](n2nc(Nc3nc4ncc(Oc5cnc6scnc6c5)c(C(F)F)c4n3C)cc2C(C)(C)C)C1 [Example I-39, (S)—N-(5-(tert-butyl)-1-(1-methylpyrrolidin-3-yl)-1H-pyrazol-3-yl)-7-(difluoromethyl)-1-methyl-6-(thiazolo[5,4-b]pyridin-6-yloxy)-1H-imidazo[4,5-b]pyridin-2-amine] | 10 to 50 nM
20 | CN1CC[C@@H](n2nc(Nc3nc4ncc(Oc5cnc6scnc6c5)c(C(F)F)c4n3C)cc2C(C)(C)C)C1 [Example I-40, (R)—N-(5-(tert-butyl)-1-(1-methylpyrrolidin-3-yl)-1H-pyrazol-3-yl)-7-(difluoromethyl)-1-methyl-6-(thiazolo[5,4-b]pyridin-6-yloxy)-1H-imidazo[4,5-b]pyridin-2-amine] | 10 to 50 nM
21 | Cn1c(Nc2cc(C(C)(C)C)n(C3CC4(COC4)C3)n2)nc2ncc(Oc3cnc4ccnn4c3)c(Cl)c21 [Example I-42, N-(5-(tert-butyl)-1-(2-oxaspiro[3.3]heptan-6-yl)-1H-pyrazol-3-yl)-7-chloro-1-methyl-6-(pyrazolo[1,5-a]pyrimidin-6-yloxy)-1H-imidazo[4,5-b]pyridin-2-amine] | 10 to 50 nM
22 | Cn1c(Nc2cc(C(C)(C)C)n([C@H]3CCN(CCF)C3)n2)nc2ncc(Oc3cnn4ccncc34)c(C(F)F)c21 [Example I-43, (S)—N-(5-(tert-butyl)-1-(1-(2-fluoroethyl)pyrrolidin-3-yl)-1H-pyrazol-3-yl)-7-(difluoromethyl)-1-methyl-6-(pyrazolo[1,5-a]pyrazin-3-yloxy)-1H-imidazo[4,5-b]pyridin-2-amine] | 10 to 50 nM
23 | Cn1c(Nc2cc(C(C)(C)C)n([C@@H]3CCN(CCF)C3)n2)nc2ncc(Oc3cnn4ccncc34)c(C(F)F)c21 [Example I-44, (R)—N-(5-(tert-butyl)-1-(1-(2-fluoroethyl)pyrrolidin-3-yl)-1H-pyrazol-3-yl)-7-(difluoromethyl)-1-methyl-6-(pyrazolo[1,5-a]pyrazin-3-yloxy)-1H-imidazo[4,5-b]pyridin-2-amine] | 50 to 1000 nM
24 | COc1c(Oc2cnc3sccc3c2)cnc2nc(Nc3cc(C(C)(C)C)n([C@H]4CCN(C)C4)n3)n(C)c12 [Example I-45, (S)—N-(5-(tert-butyl)-1-(1-methylpyrrolidin-3-yl)-1H-pyrazol-3-yl)-7-methoxy-1-methyl-6-(thieno[2,3-b]pyridin-5-yloxy)-1H-imidazo[4,5-b]pyridin-2-amine] | 10 to 50 nM
25 | COc1c(Oc2cnc3sccc3c2)cnc2nc(Nc3cc(C(C)(C)C)n([C@@H]4CCN(C)C4)n3)n(C)c12 [Example I-46, (R)—N-(5-(tert-butyl)-1-(1-methylpyrrolidin-3-yl)-1H-pyrazol-3-yl)-7-methoxy-1-methyl-6-(thieno[2,3-b]pyridin-5-yloxy)-1H-imidazo[4,5-b]pyridin-2-amine] | 50 to 1000 nM
26 | Cn1c(Nc2cc(C(C)(C)C)n(C3CC4(COC4)C3)n2)nc2ncc(Oc3cnn4ccncc34)c(Cl)c21 [Example I-49, N-(5-(tert-butyl)-1-(2-oxaspiro[3.3]heptan-6-yl)-1H-pyrazol-3-yl)-7-chloro-1-methyl-6-(pyrazolo[1,5-a]pyrazin-3-yloxy)-1H-imidazo[4,5-b]pyridin-2-amine] | < 10 nM

— patent US12043632B2, “6-heteroaryloxy benzimidazoles and azabenzimidazoles as JAK2 inhibitors” (Ajax Therapeutics, Inc., priority 2020, dated 2024)
